# Laboratory results as given in PubChem BioAssay (NCI).
#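 Where inhibition never reached the appropriate level, the endpoint shown equals the highest concentration tested. Otherwise, values were interpolated linearly from a five-concentration, 48-hour dose response in 96-well plates. Here, GI50 denotes the concentration required for 50% inhibition of growth. TGI: total growth inhibition.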
# Key:
# Assay in all cases: inhibition of tumour cell growth, NCI panel, 48 h
# T-47D breast = test system: T-47D breast
# NCI/ADR-RES ovarian = test system: NCI/ADR-RES ovarian
# MDA-MB-231 breast = test system: MDA-MB-231 breast
# DU-145 prostate = test system: DU-145 prostate
# BT-549 breast = test system: BT-549 breast
# MCF7 breast = test system: MCF7 breast
SMILES,GI50 (T-47D breast) [nM],TGI (T-47D breast) [µM],GI50 (NCI/ADR-RES ovarian) [µM],TGI (NCI/ADR-RES ovarian) [µM],GI50 (MDA-MB-231 breast) [µM],TGI (MDA-MB-231 breast) [µM],GI50 (DU-145 prostate) [µM],TGI (DU-145 prostate) [µM],GI50 (BT-549 breast) [nM],TGI (BT-549 breast) [µM],GI50 (MCF7 breast) [nM],TGI (MCF7 breast) [µM]
COC(=O)/C(C#N)=C\N1CCN(C(=O)c2ccco2)C1=S,4630,67.1,24,58.4,4.17,15.8,3.54,14,4160,13.6,,
COc1cccc(Nc2nc(NNC(=O)Cc3ccccc3)nc(NNC(=O)c3ccncc3)n2)c1,,,> 100,> 100,> 100,> 100,> 100,> 100,,,> 100000,> 100
CCN1CCC[C@H]1c1cc(O)c2c(c1OC)C[C@H]1C[C@H]3[C@H](N)C(=O)C(C(N)=O)=C(O)[C@@]3(O)C(=O)C1=C2O,44.8,1.47,0.435,> 61.5,0.0431,0.717,0.0664,2.16,71.9,1.28,241,6.1
CC(=O)Nc1ccc2nncnc2c1,,> 100,,> 100,,> 100,,> 100,,> 100,,> 100
O=C1NC(=NCC(CO)c2ccccc2)S/C1=C\c1ccc2ncccc2c1 (configuration not stated),25000,> 25,> 25,> 25,> 25,> 25,18.4,> 25,13300,> 25,12400,> 25
CCN1CCN(CCOc2ccc(CNc3ccc4nc(CCC5CCCCC5)[nH]c4c3)cc2)CC1,1930,5.41,3.11,11.2,1.6,3.11,3.91,14,1580,3.04,1800,5.84
O=C1NC(=NCc2cccs2)SC1Cc1ccc2ncccc2c1 (configuration not stated),24900,> 25,> 25,> 25,> 25,> 25,> 25,> 25,20500,> 25,8790,> 25
CCCc1cc(=O)oc2c(C(=O)CC(C)C)c(O)c(CC=C(C)C)c(O)c12,9330,40.3,8.6,48.1,9.81,24.7,14.4,> 50,7850,42.4,7830,> 50
CSC1=Nc2c(c(C)c(-c3ccccc3)n2COC(CO)CO)C2=NC(=O)C(C)N12 (configuration not stated),> 100000,> 100,> 100,> 100,> 100,> 100,> 100,> 100,> 100000,> 100,> 100000,> 100
O=C1C2=C(C(=O)c3c(O)ccc(O)c31)N(c1ccc(N3CCOCC3)nc1)Cc1ccccc1O2,205,0.9,0.401,13,0.243,0.814,0.326,1.03,249,0.845,161,0.658
O=C(N[C@H](c1ccc(Cl)c(Cl)c1)C1CNC1)c1ccc2cnccc2c1,2290,13.5,15.6,30.2,3.36,15,8.52,21,2640,12,3250,13.9
CC/C(=N\Nc1nc2ccccc2n1C)c1ccccn1,< 10,4.59,0.0382,4.9,0.14,11.8,0.127,12.7,243,12.8,17.9,13.9
Cc1ccc(-n2c3c(c4c(CN5CCCCC5)c(O)ccc42)CCc2ccccc2C3=O)cc1,> 100000,> 100,71.2,> 100,30.7,> 100,> 100,> 100,> 100000,> 100,> 100000,> 100
COc1cc(/C=C/C(=O)C(=Cc2ccc(F)c(F)c2)C(=O)/C=C/c2ccc(O)c(OC)c2)ccc1O,2310,7.7,4.06,> 100,3.48,16.7,2.1,5.27,2680,7.13,2570,11
Nc1nc(N)c2cc(CNc3ccc(Cl)c(Cl)c3)ccc2n1,1540,2.9,0.802,3.25,0.803,2.16,0.68,1.93,1400,2.78,775,2.05
COC(=O)[C@]12CC[C@@H](C)[C@H](C)[C@@H]1C1=CC[C@@H]3[C@@]4(C)C[C@@H](OC(=O)c5ccco5)[C@H](O)[C@@](C)(CO)[C@@H]4[C@H](O)C[C@@]3(C)[C@]1(C)CC2,3130,9.17,2.59,7.12,2.23,4.8,2.78,8.11,2410,5.21,1800,3.71
Cn1cc(-c2csc(-c3c[nH]c4ncccc34)n2)c2cc(Br)cnc21,1800,> 100,3.89,> 100,3.02,> 100,3.51,> 100,20500,> 100,6770,> 100
CCCCCCN(CCCCCC)CCCNc1nccc2ccccc12,,,1.6,3.37,1.44,2.91,3.42,11.9,1790,3.47,1560,3.46
CC1C2Cc3ccc(O)cc3C1(C)CCN2C (configuration not stated),,> 100,,> 100,,> 100,,> 100,,,,> 100
O=C(CCCn1c2c(sc3ncccc32)c(=O)n2nnc(-c3ccccc3)c12)NCCc1cnc[nH]1,1870,21.6,34.1,> 100,17.8,34.6,2.77,19.7,,,18000,> 100
